Laboratory results taken from PubChem BioAssay AID330 (DTP/NCI, 2004).
Where “and” joins values, the source holds several entries; their conditions need not be identical. Equal values may be shown once. Inconclusive results and toxic doses are left out. How the source made its calls: active means survival T/C of 150% or more; inactive means T/C below 125% in these data.

Tested on: P388 leukemia ip, CD2F1 mice, survival T/C
Assay: NCI In Vivo Anticancer Drug Screen. Data for tumor model P388 Leukemia (intraperitoneal) in CD2F1 (CDF1) mice
Conditions: endpoint: median survival time, higher = longer survival
Method in brief: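 Mice carrying the transplanted tumor received test compound or vehicle. Survival was recorded in each group, and the value is the treated-group measurement divided by that of the vehicle-treated control group.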

[1] = dose: 50.0 mg/kg/injection, schedule: Q01DX009 (ip), vehicle: saline with Tween-80
[2] = dose: 50.0 mg/kg/injection, schedule: Q01DX005 (ip), vehicle: saline with Tween-80
[3] = dose: 100.0 mg/kg/injection, schedule: Q01DX005 (ip), vehicle: saline with Tween-80
[4] = dose: 200.0 mg/kg/injection, schedule: Q01DX005 (ip), vehicle: saline with Tween-80
[5] = dose: 100.0 mg/kg/injection, schedule: Q01DX009 (ip), vehicle: saline with Tween-80
[6] = dose: 200.0 mg/kg/injection, schedule: Q01DX009 (ip), vehicle: saline with Tween-80
[7] = dose: 50.0 mg/kg/injection, schedule: Q01DX009 (ip), vehicle: saline
[8] = dose: 100.0 mg/kg/injection, schedule: Q01DX009 (ip), vehicle: saline
[9] = dose: 200.0 mg/kg/injection, schedule: Q01DX009 (ip), vehicle: saline
[10] = dose: 6.25 mg/kg/injection, schedule: Q01DX005 (ip), vehicle: Klucel (hydroxypropylcellulose) (HPC)
[11] = dose: 12.5 mg/kg/injection, schedule: Q01DX005 (ip), vehicle: Klucel (hydroxypropylcellulose) (HPC)
[12] = dose: 25.0 mg/kg/injection, schedule: Q01DX005 (ip), vehicle: Klucel (hydroxypropylcellulose) (HPC)
[13] = dose: 50.0 mg/kg/injection, schedule: Q01DX005 (ip), vehicle: Klucel (hydroxypropylcellulose) (HPC)
[14] = dose: 25.0 mg/kg/injection, schedule: Q01DX009 (ip), vehicle: saline
[15] = dose: 50.0 mg/kg/injection, schedule: Q01DX005 (ip), vehicle: saline
[16] = dose: 100.0 mg/kg/injection, schedule: Q01DX005 (ip), vehicle: saline
[17] = dose: 200.0 mg/kg/injection, schedule: Q01DX005 (ip), vehicle: saline
[18] = dose: 100.0 mg/kg/injection, schedule: Q01DX005 (ip), vehicle: Klucel (hydroxypropylcellulose) (HPC)
[19] = dose: 200.0 mg/kg/injection, schedule: Q01DX005 (ip), vehicle: Klucel (hydroxypropylcellulose) (HPC)
[20] = dose: 25.0 mg/kg/injection, schedule: Q01DX009 (ip), vehicle: saline with Tween-80

Measured: T/C

CCOC(=O)C(N)C[S][Sn]([CH3])([CH3])[Cl] (configuration not stated)
inactive: [1] 91 % of control

C[n+]1c(-c2cccc(-c3ccccc3)c2)c2cc([N+](=O)[O-])ccc2c2ccccc21
inactive: dose: 1.56 mg/kg/injection, schedule: Q01DX009 (ip), vehicle: Klucel (hydroxypropylcellulose) (HPC) 103 % of control | dose: 3.13 mg/kg/injection, schedule: Q01DX009 (ip), vehicle: Klucel (hydroxypropylcellulose) (HPC) 103 % of control | dose: 6.25 mg/kg/injection, schedule: Q01DX009 (ip), vehicle: Klucel (hydroxypropylcellulose) (HPC) 106 % of control | dose: 12.5 mg/kg/injection, schedule: Q01DX009 (ip), vehicle: Klucel (hydroxypropylcellulose) (HPC) 111 % of control | dose: 25.0 mg/kg/injection, schedule: Q01DX009 (ip), vehicle: Klucel (hydroxypropylcellulose) (HPC) 109 % of control

C/C(=N\N=C(/[Se])N1CCC(C)CC1)c1ccccn1
inactive: [2] 107 % of control | [3] 100 % of control | [4] 100 % of control

N#Cc1cnn(-c2cc(Cl)ccc2Cl)c1N
inactive: [1] 99 % of control and 95 % of control and 98 % of control | [5] 101 % of control and 103 % of control and 92 % of control | [6] 104 % of control and 105 % of control and 123 % of control

CN(C)c1ccc(/C=C/c2ccnc3ccc4ccccc4c23)cc1
inactive: [1] 98 % of control | [5] 100 % of control | [6] 110 % of control

OCC1OC(n2cnc3c(Br)ncnc32)C(O)C1O (configuration not stated)
inactive: [2] 91 % of control | [3] 98 % of control | [4] 91 % of control

CCOC(=O)Nc1ccc2nc(-c3cscn3)[nH]c2c1
inactive: [7] 101 % of control | [8] 112 % of control | [9] 115 % of control

COC(=O)/C=C1\C=CC(=O)OC1O (configuration not stated)
inactive: [10] 102 % of control | [11] 103 % of control | [12] 113 % of control

COc1cc(C)c2c(OC)c(C)c(=O)oc2c1OC
inactive: [10] 105 % of control | [11] 100 % of control | [12] 97 % of control | [13] 104 % of control

CCc1nc(N)nc(N)c1-c1ccc(NC(C)c2ccccc2)c([N+](=O)[O-])c1 (configuration not stated)
inactive: dose: 3.75 mg/kg/injection, schedule: Q01DX005 (ip), vehicle: Klucel (hydroxypropylcellulose) (HPC) 101 % of control | dose: 7.5 mg/kg/injection, schedule: Q01DX005 (ip), vehicle: Klucel (hydroxypropylcellulose) (HPC) 101 % of control and 107 % of control | dose: 15.0 mg/kg/injection, schedule: Q01DX005 (ip), vehicle: Klucel (hydroxypropylcellulose) (HPC) 112 % of control and 113 % of control

NC(CC(=O)O)C(=O)OCc1ccccc1 (configuration not stated)
inactive: [14] 97 % of control | [7] 100 % of control | [8] 100 % of control | [9] 98 % of control

COC(=O)C1(O)OCC(O)C(O)C1O (configuration not stated)
inactive: [15] 100 % of control | [16] 105 % of control | [17] 100 % of control

[NH-]CC(=O)O.[NH-]CC(=O)O.[Pt+2]
inactive: dose: 3.13 mg/kg/injection, schedule: Q01DX009 (ip), vehicle: water 97 % of control | dose: 6.25 mg/kg/injection, schedule: Q01DX009 (ip), vehicle: distilled water + Tween-80 119 % of control | dose: 6.25 mg/kg/injection, schedule: Q01DX009 (ip), vehicle: water 90 % of control and 112 % of control | dose: 12.5 mg/kg/injection, schedule: Q01DX009 (ip), vehicle: distilled water + Tween-80 111 % of control | dose: 12.5 mg/kg/injection, schedule: Q01DX009 (ip), vehicle: water 106 % of control and 110 % of control | dose: 25.0 mg/kg/injection, schedule: Q01DX009 (ip), vehicle: water 100 % of control and 112 % of control | dose: 50.0 mg/kg/injection, schedule: Q01DX009 (ip), vehicle: distilled water + Tween-80 119 % of control | dose: 50.0 mg/kg/injection, schedule: Q01DX009 (ip), vehicle: water 97 % of control | dose: 100.0 mg/kg/injection, schedule: Q01DX009 (ip), vehicle: distilled water + Tween-80 115 % of control | dose: 100.0 mg/kg/injection, schedule: Q01DX009 (ip), vehicle: water 97 % of control | dose: 200.0 mg/kg/injection, schedule: Q01DX009 (ip), vehicle: distilled water + Tween-80 98 % of control

N#Cc1ccc(N2CCCC2)c(C#N)c1Cl
inactive: [13] 100 % of control | [18] 96 % of control | [19] 99 % of control

CCOc1ccc(NC(=O)OCc2c3ccccc3cc3ccccc23)cc1
inactive: dose: 50.0 mg/kg/injection, schedule: Q01DX009 (ip), vehicle: Klucel (hydroxypropylcellulose) (HPC) 100 % of control | dose: 100.0 mg/kg/injection, schedule: Q01DX009 (ip), vehicle: Klucel (hydroxypropylcellulose) (HPC) 96 % of control | dose: 200.0 mg/kg/injection, schedule: Q01DX009 (ip), vehicle: Klucel (hydroxypropylcellulose) (HPC) 105 % of control

CC(C)(C)c1cc(C=O)cc(C(C)(C)C)c1O
inactive: [20] 99 % of control | [1] 100 % of control | [5] 96 % of control | [6] 91 % of control

CC(C)CCc1cc(O)ccc1O
inactive: [20] 114 % of control | [1] 101 % of control | [5] 98 % of control | [6] 97 % of control

Cc1ccc(S(=O)(=O)N2CC3CNC(=O)C(C3)C2)cc1 (configuration not stated)
inactive: dose: 100.0 mg/kg/injection, schedule: Q01DX001 (ip), vehicle: Klucel (hydroxypropylcellulose) (HPC) 104 % of control | dose: 200.0 mg/kg/injection, schedule: Q01DX001 (ip), vehicle: Klucel (hydroxypropylcellulose) (HPC) 101 % of control | dose: 400.0 mg/kg/injection, schedule: Q01DX001 (ip), vehicle: Klucel (hydroxypropylcellulose) (HPC) 107 % of control

CCN(CC)CCCC(C)Nc1ncnc2ccc(OC)cc12 (configuration not stated)
inactive: [15] 94 % of control | [16] 99 % of control | [17] 94 % of control

O=C(CCn1[nH]c(=O)c(Cl)c(Cl)c1=O)NNc1ccc([N+](=O)[O-])cc1[N+](=O)[O-]
inactive: [2] 92 % of control | [3] 103 % of control | [4] 92 % of control

NC(Cc1cccc(F)c1)c1nn[nH]n1 (configuration not stated)
inactive: dose: 50.0 mg/kg/injection, schedule: Q04DX003 (ip), vehicle: saline with Tween-80 100 % of control | dose: 100.0 mg/kg/injection, schedule: Q04DX003 (ip), vehicle: saline with Tween-80 93 % of control

CCN(CC)C(Cc1ccccc1)=NC(C)(C)C
inactive: [1] 94 % of control | [5] 88 % of control

CC(=O)O[C@H]1CC[C@@]2(C)C(=CC[C@@H]3[C@@H]2CC[C@]2(C)C(=NCCCN4CCOCC4)CC[C@@H]32)C1
inactive: [13] 105 % of control | [18] 101 % of control | [19] 99 % of control

C1CNCCN1
inactive: dose: 12.5 mg/kg/injection, schedule: Q01DX009 (ip), vehicle: saline 113 % of control and 96 % of control | dose: 12.5 mg/kg/injection, schedule: Q01DX009 (ip), vehicle: suspension in saline 93 % of control | [14] 114 % of control and 96 % of control | [7] 94 % of control and 97 % of control | [8] 89 % of control | dose: 100.0 mg/kg/injection, schedule: Q01DX009 (ip), vehicle: suspension in saline 97 % of control | dose: 150.0 mg/kg/injection, schedule: Q01DX009 (ip), vehicle: saline 100 % of control and 114 % of control | dose: 150.0 mg/kg/injection, schedule: Q01DX009 (ip), vehicle: suspension in saline 93 % of control

CC1CCCCC1OC(=O)Nc1ccccc1 (configuration not stated)
inactive: [7] 105 % of control | [8] 101 % of control | [9] 100 % of control

COc1ccc2nccc(C(C)=O)c2c1
inactive: [13] 100 % of control | [18] 98 % of control | [19] 106 % of control

O=C(N/N=C/C(O)C(O)C(O)C(O)C(=O)O)c1ccncc1 (configuration not stated)
inactive: [15] 99 % of control | [16] 93 % of control | [17] 100 % of control

NOCc1ccccc1CON
inactive: dose: 37.5 mg/kg/injection, schedule: Q01DX009 (ip), vehicle: saline with Tween-80 86 % of control | dose: 75.0 mg/kg/injection, schedule: Q01DX009 (ip), vehicle: saline with Tween-80 91 % of control | dose: 150.0 mg/kg/injection, schedule: Q01DX009 (ip), vehicle: saline with Tween-80 104 % of control

O=C(O)c1ccc(S(=O)(=O)F)c(Cl)c1
inactive: dose: 60.0 mg/kg/injection, schedule: Q01DX005 (ip), vehicle: saline with Tween-80 120 % of control | dose: 120.0 mg/kg/injection, schedule: Q01DX005 (ip), vehicle: saline with Tween-80 119 % of control | dose: 240.0 mg/kg/injection, schedule: Q01DX005 (ip), vehicle: saline with Tween-80 121 % of control
